# Experiment: Elution of antibiotics from cured α-BSM cement ball into phosphate buffer
# Format: physicochemical
# Conditions: other material used as carrier instead of the hydroxyapatite-like cement pastes
# Description: 1 g of cement powder (α-BSM, WO 96/36562) and 0.7 ml of water in which 42 mg of gentamycin sulfate have been dissolved are mixed with one another. A paste is obtained by this means, which is shaped to give a ball of about 1 cm diameter. This ball is added at 37° C. to 20 ml of phosphate buffer according to Sörensen (pH 7.4). After approximately 10 minutes, the cement ball cures. At defined times, samples are taken from the buffer solution and the concentration of the antibiotic is determined microbiologically or chromatographically according to standard methods. The determined antibiotic concentrations in μg/ml correspond to the concentrations released in the buffer.
# Analogously to Example 1, a previously cured ball of agar/gentamycin sulfate is eluted and the corresponding concentrations are measured.
# Analogously to Example 1, an α-BSM/cefazolin ball is eluted and the corresponding concentrations are measured.
# Analogously to Example 1, an α-BSM/netilmycin sulfate ball is eluted and the corresponding concentrations are measured.
substance,measurement,value
gentamycin sulfate,release characteristics of the antibiotic (in words),released just as rapidly
